Measurements taken from patent publication US20220160804A1, “USE OF LAURUS NOBILIS EXTRACT FRACTIONS TO PROTECT AGAINST AIR POLLUTION RELATED DISEASES” (DSM IP Assets B.V., priority 2019, published 2022).

Experiments:
IL-8 = IL-8 secretion of A549 cells treated with Diesel Particulate Matter; type: cell-based, human; conditions: Table 5, LPS 10 μg/mL
Excerpt: (§1) The human bronchial epithelial cell line BEAS-2B was from ATCC (American Type Culture Collection, Manassas, Va.) and cultured in Bronchial Epithelial cell Growth Medium (BEGM, Lonza, Wakersville, Md.) in CellBIND® surface plastic flasks (Corning Inc., Corning, N.Y.). The adenocarcinomic human alveolar basal epithelial A549 cell line was obtained from ATCC and cultured in Kaighn's Modification of Ham's F-12 Medium (F-12K medium) (Life Technologies, USA), supplemented with 10% FBS (Sigma, Saint-Louis, Mo.). These cells were cultured at 37° C. in a humidified atmosphere containing 5% CO2.
(§2) BEAS-2B cells were seeded in 12-well CellBIND® surface culture plates (Corning Inc.) at 3 to 4×10^5 cells per well. A549 cells were seeded in 12-well plates at 2×10^5 cells per well. […]
(§3) After 24 h, cells were treated with the diluted Diesel Particulate Matter at 100 μg/ml and in the presence of different concentrations of Laurus Extracts, other plant extracts, fractions and compounds as indicated. […] The concentrations of IL-6 and IL-8 in the supernatants were determined by Luminex kits (BIO-RAD Laboratories, Hercules, Calif.) and used in the LiquiChip Workstation IS 200 (Qiagen, Hilden, Germany). The data were evaluated with the LiquiChip Analyser software (Qiagen).
(§4) Mean values, standard deviation and p-values with Student's t-test were calculated with Excel. […]

IL-6 [1] = assay: IL-6 secretion of BEAS-2B cells treated with Diesel Particulate Matter; type: cell-based, human; conditions: for IL-6 % of PM + DMSO: PM + DMSO = 100
Excerpt: as §1
BEAS-2B cells were seeded in 12-well CellBIND® surface culture plates (Corning Inc.) at 3 to 4×10^5 cells per well. A549 cells were seeded in 12-well plates at 2×10^5 cells per well.
Diesel Particulate Matter (Standard Reference Material SRM 1650b, National Institute of Standards & Technology, NIST, Gaithersburg, Md.) at 80 mg/ml DMSO (100%) were sonicated for 5 min and thereafter diluted 400 fold in medium. This dilution was twofold further diluted for the assay.
After 24 h, cells were treated with the diluted Diesel Particulate Matter at 100 μg/ml and in the presence of different concentrations of Laurus Extracts, other plant extracts, fractions and compounds as indicated. The final DSMO concentrations were 0.175%. Untreated cells or cells treated with 0.175% DMSO were used as controls. After 24 h, cell supernatants were collected. The concentrations of IL-6 and IL-8 in the supernatants were determined by Luminex kits (BIO-RAD Laboratories, Hercules, Calif.) and used in the LiquiChip Workstation IS 200 (Qiagen, Hilden, Germany). The data were evaluated with the LiquiChip Analyser software (Qiagen).
Mean values, standard deviation and p-values with Student's t-test were calculated with Excel. P-values […] 0.05 were considered as indication for significance.

IL-6 [2] = assay: IL-6 secretion of A549 cells treated with Diesel Particulate Matter; type: cell-based, human; conditions: Table 4, LPS 10 μg/mL
Excerpt: as §1, §2, §3, §4

Nrf2 = assay: Luciferase reporter assay using H4IIE-ARE8L cells (Nrf2 activation); type: cell-based, rat; conditions: R-sulforaphane Conc. Final 4.55 μg/ml as printed, concentrations of fractions not given, DMSO 0.45 % control 2921
Description: PloS One. 2012; 7 (5): e36774). […] The media was exchanged every two to three-days. The DMEM assay medium used charcoal treated FBS ([…] transactivation assay was performed in 96 well plates. The plates were seeded with approximately 40,000 cells per well in 100 μ[…] and incubated over night at 37° C. Then the test compounds were diluted in […] and given to the cells as described below. The cells were incubated for at least further 16 h at 37° C. and 5% CO2. Cells were equilibrated to room temperature. Lysis of the cells was done by adding 100 μL lysis solution, Steady-Glo® luciferase buffer according to the manufacturer (Promega) containing 0.5 mM DTT per well and incubated for 10 min at room temperature with gentle shaking. The luminescence was measured within 2 hours after incubation on a luminometer (Mithras, Berthold Technologies). […] We used a rat hepatoma cell line that was stably transfected with a construct that contains eight tandem ARE elements in front of a luciferase reporter gene ([…], et al 2012. PloS One. 2012; 7(5):e36774). All extracts, fractions and pure compounds were tested for concentrations that induce toxicity. Non-toxic concentrations were then selected for treating cells as describes in the methods section.

Compound | IL-8 (IL-8; 24 h) | IL-8 % of PM + DMSO (IL-8; PM + DMSO = 100) | IL-6 induction relative to PM and DMSO (IL-6 [1]; LPS 10 μg/mL versus PM + DMSO (Table 2)) | IL-6 (IL-6 [1]; Table 2, LPS 10 μg/mL, 24 h) | IL-6 % of PM + DMSO (IL-6 [1]; Table 2, LPS 10 μg/mL, 24 h) | IL-6 (IL-6 [1]; Table 3, LPS 10 μg/mL, 24 h) | IL-6 % of PM + DMSO (IL-6 [1]; Table 3, LPS 10 μg/mL) | IL-6 (IL-6 [2]; 24 h) | IL-6 % of PM + DMSO (IL-6 [2]; PM + DMSO = 100) | Nrf-2 activity, Average (Nrf2)
Lipopolysaccharide [LPS] | 406 pg/mL | 140% | over 40 times | 3760 pg/mL | 4482% | 6477 pg/mL | 10612% | 19.6 pg/mL | 45% | –
C[S+]([O-])CCCCN=C=S (stereo not shown) [R-Sulforaphane, R-sulforaphane] | – | – | – | – | – | – | – | – | – | 13233 relative units of luciferase fluorescence
